From patent US20150141523A1, “COMPOUNDS FOR USE IN THE TREATMENT OF AUTOIMMUNE INFLAMMATORY DISEASE” (Venantius Limited, priority 2012, published 2015)

What was measured:
[1] = test system: IL-2 secretion from Jurkat T cells; experiment: IL-2 secretion from activated Jurkat T cells (ELISA); assay type: cell-based, human; conditions: for IL-2 [ ]pg/ml (1) / IL-2 % Control (1): experiment (1); for IL-2 % Control (1) / IL-2 % Control (2) / IL-2 % Control (3): relative to DMSO 0.1%; for IL-2 [ ]pg/ml (2) / IL-2 % Control (2): experiment (2); for IL-2 [ ]pg/ml (3) / IL-2 % Control (3): experiment (3)
Protocol: The T cell line Jurkat 6.1 (ATCC) was used. Cells were pre-treated for 30 min with 1 μM or 10 μM of the respective compound and then stimulated with plate-bound anti-CD3 (BD Pharmingen) and anti-CD28 (AnCell). DMSO was used as vehicle control. The immunosuppressive agent Cyclosporine A was used as a control for inhibition of IL-2 production. After 24 hs the supernatant was collected and IL-2 secretion was measured by ELISA.
Jurkat T cells were cultured in RMPI-1640 medium containing 10 % Foetal Bovine Serum, Penicillin/Streptomycin and L-Glutamine in T-75cm2 flasks at 37° C. and 5 % CO2. Cells were seeded into new culture flasks at a density of 1-3×10^5 cells per ml and maintained at a density of 0.5−1×10^6 cells per ml.
(A) Anti-TCR/CD28-mediated activation of Jurkat cells: Experiments involving anti-TCR/CD28-mediated activation of Jurkat T lymphocytes were carried out on 24-well cell culture plates. The plates were coated with a 1/100 dilution of rabbit anti-mouse IgG in sterile PBS (1×) and incubated overnight at 4OC. Unbound antibody was aspirated and the wells were gently rinsed with warm sterile PBS. The PBS was aspirated and the wells were coated with a 1/100 dilution of anti-TCR antibody (OKT-3) and a 1/200 dilution of anti-CD28 antibody (both antibodies pre-mixed prior to addition to the plates) in sterile PBS. The plates were then incubated for 1-2 hours at 37° C. Unbound antibody was aspirated and the wells were gently rinsed with warm PBS. The PBS was left on the plate until the Jurkat cells were ready to be added to the plate. The Jurkat cells were harvested from the T-75cm2 cell culture flasks and resuspended at a density of 0.5×10^6 cells per ml. The compounds were dissolved at a specified stock concentration (see results section) and diluted to the required concentration by adding the drug to the cell suspension. The cells were then pre-incubated with the compounds or with an equivalent volume of drug vehicle control (DMSO) for 30 minutes prior to adding the cell suspension to the antibody-coated plates. Cyclosporine A (1 μM) was used as a positive control to inhibit IL-2 production from activated T cells and was preincubated with the 6 cells as described above in parallel. The cells were then incubated on the plates with the acti-TCR/CD28 antibodies for 24 hours at 37° C. and 5% CO2 in a humidified atmosphere. After 24 hours, the cell suspension was removed from the plates and the cells were pelleted by centrifugation. The cell culture supernatant was saved and analysed for secreted IL-2 by ELISA. The cell pellet was saved and cell viability was measured using Acridine Orange/Ethidium Bromide cell viability staining solution.
(B) PHA/PMA-mediated activation of Jurkat cells Jurkat cells were resuspended at a concentration of 0.5×10^6 cells per ml and the Pharmatrin compounds at the desired concentration or an equivalent volume of drug vehicle control (DMSO) were added to the cells and incubated for 30 minutes. Cyclosporine A (1 ∝M) was used as a positive control to inhibit IL-2 production from activated T cells and was preincubated with the cells as described above in parallel. PHA and PMA were added to the cell suspension (10 ∝g/ml and 10 ng/ml respectively) and the cells were plated onto uncoated 24-well plates. The cells were incubated on the plates for 24 hours at 37° C. and 5 % CO2 in a humidified atmosphere. After 24 hours, the cell suspension was removed from the plates and the cells were pelleted by centrifugation. The cell culture supernatant was saved and analysed for secreted IL-2 by ELISA.
The cell culture supernatants were analysed for IL-2 by ELISA (96-well plate format) using the Human IL-2 ELISA kit from R&D Systems Europe. This assay was carried out using the standard protocol outlined by the company. Samples and standards (recombinant human IL-2 provided by R&D Systems) were analysed in triplicate. […]

[2] = test system: Balb/C mice; experiment: 5% DSS-induced murine colitis model; assay type: in vivo, mouse; conditions: for inhibition of DAI in DSS-induced colitis: 5% DSS colitis (FIG. 9); for effect on DSS-induced weight loss: 5% DSS colitis, 30 mg/kg p.o. (FIG. 8)

O[C@H]1c2ccccc2C[C@]1(Cc1ccccc1)C1=Cc2ccccc2C1 (single isomer, unassigned) [Compound 9]
IL-2 [ ]pg/ml (1) ([1]; 0.3 uM): 111.72 pg/mL | IL-2 % Control (1) ([1]; 0.3 uM): 152.99% | IL-2 [ ]pg/ml (2) ([1]; 0.3 uM): 73.45 pg/mL | IL-2 % Control (2) ([1]; 0.3 uM): 112.48% | IL-2 [ ]pg/ml (3) ([1]; 0.3 uM): 139.63 pg/mL | IL-2 % Control (3) ([1]; 0.3 uM): 106.13% | IL-2 [ ]pg/ml (1) ([1]; 1 uM): 120.56 pg/mL | IL-2 % Control (1) ([1]; 1 uM): 165.09% | IL-2 [ ]pg/ml (2) ([1]; 1 uM): 65.45 pg/mL | IL-2 % Control (2) ([1]; 1 uM): 100.23% | IL-2 [ ]pg/ml (3) ([1]; 1 uM): 114.13 pg/mL | IL-2 % Control (3) ([1]; 1 uM): 86.75% | IL-2 [ ]pg/ml (1) ([1]; 3 uM): 78.78 pg/mL | IL-2 % Control (1) ([1]; 3 uM): 107.88% | IL-2 [ ]pg/ml (2) ([1]; 3 uM): 81.75 pg/mL | IL-2 % Control (2) ([1]; 3 uM): 59.11% | IL-2 [ ]pg/ml (3) ([1]; 3 uM): 53.47 pg/mL | IL-2 % Control (3) ([1]; 3 uM): 40.64% | IL-2 [ ]pg/ml (1) ([1]; 10 uM): 37.72 pg/mL | IL-2 % Control (1) ([1]; 10 uM): 51.66% | IL-2 [ ]pg/ml (2) ([1]; 10 uM): 85.60 pg/mL | IL-2 % Control (2) ([1]; 10 uM): 131.09% | IL-2 [ ]pg/ml (3) ([1]; 10 uM): 36.16 pg/mL | IL-2 % Control (3) ([1]; 10 uM): 27.48% | IL-2 [ ]pg/ml (1) ([1]; 30 uM): -4.56 pg/mL | IL-2 % Control (1) ([1]; 30 uM): −6.24% | IL-2 [ ]pg/ml (2) ([1]; 30 uM): 16.35 pg/mL | IL-2 % Control (2) ([1]; 30 uM): 25.04% | IL-2 [ ]pg/ml (3) ([1]; 30 uM): -3.88 pg/mL | IL-2 % Control (3) ([1]; 30 uM): −2.95% | IL-2 [ ]pg/ml (1) ([1]; 100 uM): -3.72 pg/mL | IL-2 % Control (1) ([1]; 100 uM): −5.10% | IL-2 [ ]pg/ml (2) ([1]; 100 uM): -5.75 pg/mL | IL-2 % Control (2) ([1]; 100 uM): −8.81% | IL-2 [ ]pg/ml (3) ([1]; 100 uM): -5.28 pg/mL | IL-2 % Control (3) ([1]; 100 uM): −4.01% | inhibition of DAI in DSS-induced colitis [2]: only the S,S-enantiomer 10 caused a significant | effect on DSS-induced weight loss [2]: not

O[C@@H]1c2ccccc2C[C@@]1(Cc1ccccc1)C1=Cc2ccccc2C1 (single isomer, unassigned) [Compound 10]
IL-2 [ ]pg/ml (1) ([1]; 0.3 uM): 79.17 pg/mL | IL-2 % Control (1) ([1]; 0.3 uM): 108.41% | IL-2 [ ]pg/ml (2) ([1]; 0.3 uM): 88.15 pg/mL | IL-2 % Control (2) ([1]; 0.3 uM): 134.99% | IL-2 [ ]pg/ml (3) ([1]; 0.3 uM): 58.63 pg/mL | IL-2 % Control (3) ([1]; 0.3 uM): 44.56% | IL-2 [ ]pg/ml (1) ([1]; 1 uM): 64.17 pg/mL | IL-2 % Control (1) ([1]; 1 uM): 87.87% | IL-2 [ ]pg/ml (2) ([1]; 1 uM): 57.50 pg/mL | IL-2 % Control (2) ([1]; 1 uM): 88.06% | IL-2 [ ]pg/ml (3) ([1]; 1 uM): 104.44 pg/mL | IL-2 % Control (3) ([1]; 1 uM): 79.39% | IL-2 [ ]pg/ml (1) ([1]; 3 uM): 71.39 pg/mL | IL-2 % Control (1) ([1]; 3 uM): 97.76% | IL-2 [ ]pg/ml (2) ([1]; 3 uM): 54.15 pg/mL | IL-2 % Control (2) ([1]; 3 uM): 82.92% | IL-2 [ ]pg/ml (3) ([1]; 3 uM): 100.50 pg/mL | IL-2 % Control (3) ([1]; 3 uM): 76.39% | IL-2 [ ]pg/ml (1) ([1]; 10 uM): 42.50 pg/mL | IL-2 % Control (1) ([1]; 10 uM): 58.20% | IL-2 [ ]pg/ml (2) ([1]; 10 uM): 45.60 pg/mL | IL-2 % Control (2) ([1]; 10 uM): 69.83% | IL-2 [ ]pg/ml (3) ([1]; 10 uM): 80.25 pg/mL | IL-2 % Control (3) ([1]; 10 uM): 61.00% | IL-2 [ ]pg/ml (1) ([1]; 30 uM): 14.17 pg/mL | IL-2 % Control (1) ([1]; 30 uM): 19.40% | IL-2 [ ]pg/ml (2) ([1]; 30 uM): 56.70 pg/mL | IL-2 % Control (2) ([1]; 30 uM): 86.83% | IL-2 [ ]pg/ml (3) ([1]; 30 uM): 46.06 pg/mL | IL-2 % Control (3) ([1]; 30 uM): 35.01% | IL-2 [ ]pg/ml (1) ([1]; 100 uM): -11.33 pg/mL | IL-2 % Control (1) ([1]; 100 uM): −15.52% | IL-2 [ ]pg/ml (2) ([1]; 100 uM): -6.30 pg/mL | IL-2 % Control (2) ([1]; 100 uM): −9.65% | IL-2 [ ]pg/ml (3) ([1]; 100 uM): -0.78 pg/mL | IL-2 % Control (3) ([1]; 100 uM): −0.59% | inhibition of DAI in DSS-induced colitis [2]: significant (P<0.0059) inhibition | effect on DSS-induced weight loss [2]: ameliorated | disease activity index (DAI) ([2]; day 7, mean±SEM, vehicle control 6.833±1.276): 2.333±0.211
